Laboratory results taken from patent US8906848B2, “Aureobasidin derivatives and methods of synthesis” (priority 2011, dated 2014).
Like-named read-outs stand apart in the source and are kept apart here.

Legend:
[1] = system: Aspergillus fumigatus 5280 (ATCC MYA-3626); details: at 48 hrs; cited from earlier work
[2] = system: Candida parapsilosis 2323 (ATCC22019); details: cited from earlier work
[3] = system: Aspergillus ochraceus 625 (ATCC96919); test: MIC, antifungal spectrum (Table 3); format: cell-based
Procedure: (§1) The activities of several exemplary compounds of the present invention were assayed according to the CLSI standard M38-A2 titled “Reference Method for Broth Dilution Antifungal Susceptibility Testing of Filamentous Fungi”. However, the RPMI-1640 broth is substituted for a YPD medium formulated according to the following steps: […]
(§2) 1. Dissolve 10 g of BactoYeast extract in 500 ml water
(§3) 2. Dissolve 20 g of BactoPeptone in the above solution
(§4) 3. Dissolve 20 g Dextrose in the above solution* *Ordinary table sugar (sucrose) substituted for dextrose routinely.
(§5) 4. q.s. to 1000 ml with water

[4] = system: Aspergillus flavus 122 (ATCC22546); test: MIC, antifungal spectrum (Table 3); format: cell-based
Procedure: as §1, §2, §3, §4, §5

[5] = system: Candida albicans 4782 (ATCC24433); test: MIC, antifungal spectrum (Table 3); format: cell-based
Procedure: as §1, §2, §3, §4, §5

[6] = system: Candida guilliermondii 628 (ATCC34134); test: MIC, antifungal spectrum (Table 3); format: cell-based; details: Meyerozyma guilliermondii
Procedure: as §1, §2, §3, §4, §5

[7] = system: Fusarium oxysporum 0893 (ATCC48112); test: MIC, antifungal spectrum (Table 3); format: cell-based; details: at 96 hr, read-out: MIC
Procedure: as §1, §2, §3, §4, §5

[8] = system: Aspergillus candidus 450 (ATCC13686); test: MIC, antifungal spectrum (Table 3); format: cell-based
Procedure: as §1, §2, §3, §4, §5

[9] = system: Issatchenkia orientalis 2322 (ATCC6258); test: MIC, antifungal spectrum (Table 3); format: cell-based; details: Pichia kudriavzevii
Procedure: as §1, §2, §3, §4, §5

[10] = system: Aspergillus fumigatus 891 (ATCC204305); test: MIC, antifungal spectrum (Table 3); format: cell-based
Procedure: as §1, §2, §3, §4, §5

[11] = system: Candida albicans 633 (ATCC90029); test: MIC, antifungal spectrum (Table 3); format: cell-based
Procedure: as §1, §2, §3, §4, §5

[12] = system: Aspergillus niger 624 (ATCC16888); test: MIC, antifungal spectrum (Table 3); format: cell-based
Procedure: as §1, §2, §3, §4, §5

[13] = system: Candida albicans 2000 (ATCC10231); test: MIC, antifungal spectrum (Table 3); format: cell-based
Procedure: as §1, §2, §3, §4, §5

[14] = system: Candida glabrata 635 (ATCC90030); test: MIC, antifungal spectrum (Table 3); format: cell-based; details: Nakaseomyces glabratus
Procedure: as §1, §2, §3, §4, §5

[15] = system: Rhizopus oryzae 0890 (ATCC11886); test: MIC, antifungal spectrum (Table 3); format: cell-based; details: Rhizopus arrhizus
Procedure: as §1, §2, §3, §4, §5

[16] = system: Aspergillus fumigatus 5280 (ATCC MYA-3626); test: MIC, antifungal spectrum (Table 3); format: cell-based
Procedure: as §1, §2, §3, §4, §5

[17] = system: Candida parapsilosis 2323 (ATCC22019); test: MIC, antifungal spectrum (Table 3); format: cell-based; details: Lodderomyces parapsilosis
Procedure: as §1, §2, §3, §4, §5

[18] = system: Candida albicans 104 (ATCC90028); test: MIC, antifungal spectrum (Table 3); format: cell-based
Procedure: as §1, §2, §3, §4, §5

[19] = system: Trychophyton mentagrophytes 5278 (ATCC MYA-4439); test: MIC, antifungal spectrum (Table 3); format: cell-based; details: at 96 hrs, read-out: MIC
Procedure: as §1, §2, §3, §4, §5

[20] = system: Aspergillus flavus 4787 (ATCC204304); test: MIC, antifungal spectrum (Table 3); format: cell-based
Procedure: as §1, §2, §3, §4, §5

[21] = system: Candida parapsilosis 0630 (ATCC90018); test: MIC, antifungal spectrum (Table 3); format: cell-based; details: Lodderomyces parapsilosis
Procedure: as §1, §2, §3, §4, §5

[22] = system: Candida albicans 2486 (ATCC204276); test: MIC, antifungal spectrum (Table 3); format: cell-based
Procedure: as §1, §2, §3, §4, §5

[23] = system: Saccharomyces cerevisiae 0639 (ATCC7754); test: MIC, antifungal spectrum (Table 3); format: cell-based
Procedure: as §1, §2, §3, §4, §5

[24] = system: Candida tropicalis 636 (ATCC90874); test: MIC, antifungal spectrum (Table 3); format: cell-based
Procedure: as §1, §2, §3, §4, §5

[25] = system: Sporothrix schenkii 892 (ATCC14284); test: MIC, antifungal spectrum (Table 3); format: cell-based; details: at 96 hrs, read-out: MIC
Procedure: as §1, §2, §3, §4, §5

[26] = system: Candida albicans 2487 (ATCC MYA-2732); test: MIC, antifungal spectrum (Table 3); format: cell-based
Procedure: as §1, §2, §3, §4, §5

[27] = system: Emericella nidulans 637 (ATCC96921); test: MIC, antifungal spectrum (Table 3); format: cell-based; details: Aspergillus nidulans
Procedure: as §1, §2, §3, §4, §5

[28] = system: Trychophyton rubrum 5279 (ATCC MYA-4438); test: MIC, antifungal spectrum (Table 3); format: cell-based; details: at 72 hrs, read-out: MIC
Procedure: as §1, §2, §3, §4, §5

[29] = system: Aspergillus flavus 626 (ATCC64025); test: MIC, antifungal spectrum (Table 3); format: cell-based
Procedure: as §1, §2, §3, §4, §5

[30] = system: Candida tropicalis 4783 (ATCC750); test: MIC, antifungal spectrum (Table 3); format: cell-based
Procedure: as §1, §2, §3, §4, §5

[31] = system: Aspergillus clavatus 638 (ATCC10058); test: MIC, antifungal spectrum (Table 3); format: cell-based
Procedure: as §1, §2, §3, §4, §5

[32] = system: Candida lusitaniae 631 (ATCC66035); test: MIC, antifungal spectrum (Table 3); format: cell-based; details: Clavispora lusitaniae
Procedure: as §1, §2, §3, §4, §5

[33] = system: Trychophyton mentagrophytes 640 (ATCC 28185); test: MIC, antifungal spectrum (Table 3); format: cell-based
Procedure: as §1, §2, §3, §4, §5

[34] = system: Candida krusei 629 (ATCC14243); test: MIC, antifungal spectrum (Table 3); format: cell-based; details: Pichia kudriavzevii
Procedure: as §1, §2, §3, §4, §5

C[C@@H]1[C@H](O)[C@@H](C)/C=C/C=C/C=C/C=C/C=C/C=C/C=C/[C@H](O[C@@H]2O[C@H](C)[C@@H](O)[C@H](N)[C@@H]2O)C[C@@H]2O[C@](O)(C[C@@H](O)C[C@@H](O)[C@H](O)CC[C@@H](O)C[C@@H](O)CC(=O)O[C@H]1C)C[C@H](O)[C@H]2C(=O)O [Amphotericin, Amphotericin B]
2 µg/mL: MIC ([16]; 72 h, Aspergillus fumigatus 5280 (ATCC MYA-3626) no Tween, 72 hr reading) | MIC ([27]; 72 hr reading)
0.008 µg/mL: MIC ([6]; 48 hr reading)
0.5-4 at 48 hrs μg/ml: Amphotericin B CLSI QC Range for A. Fumigatus ATCC MYA-3626 [1]
0.6 µg/mL: MIC ([5]; 72 hr reading) | MIC ([11]; 72 hr reading) | MIC ([13]; 72 hr reading) | MIC ([18]; 72 hr reading)
0.015 µg/mL: MIC ([6]; 72 hr reading) | MIC ([31]; 72 hr reading) | MIC ([32]; 48 hr reading)
0.06 µg/mL: MIC ([8]; 72 hr reading) | MIC [19] | MIC ([21]; 48 hr reading) | MIC ([22]; 48 hr reading) | MIC ([22]; 72 hr reading) | MIC ([23]; 48 hr reading) | MIC ([23]; 72 hr reading) | MIC ([24]; 48 hr reading) | MIC ([26]; 48 hr reading) | MIC ([26]; 72 hr reading) | MIC ([30]; 48 hr reading) | MIC ([33]; 48 hr reading)
≤ 0.004 µg/mL: MIC ([31]; 48 hr reading)
0.125 µg/mL: MIC ([9]; 48 hr reading) | MIC ([9]; 72 hr reading) | MIC ([12]; 72 hr reading) | MIC ([14]; 72 hr reading) | MIC ([17]; ATCC22019, 48 h, Candida parapsilosis 2323 (ATCC22019), 48 hr reading) | MIC ([17]; ATCC22019, 72 h, Candida parapsilosis 2323 (ATCC22019), 72 hr reading) | MIC ([21]; 72 hr reading) | MIC ([24]; 72 hr reading) | MIC ([30]; 72 hr reading) | MIC ([34]; 48 hr reading) | MIC ([34]; 72 hr reading)
0.5-4 (48 hrs) μg/ml: Amphotericin B CLSI QC Range for C. parapsilosis ([2]; 48 hrs)
0.03 µg/mL: MIC ([8]; 48 hr reading) | MIC ([12]; 48 hr reading) | MIC ([14]; 48 hr reading) | MIC ([15]; 48 hr reading) | MIC ([15]; 72 hr reading) | MIC [28] | MIC ([32]; 72 hr reading)
0.25-2 (24 hrs) μg/ml: Amphotericin B CLSI QC Range for C. parapsilosis ([2]; 24 hrs)
1 µg/mL: MIC [7] | MIC ([10]; 72 hr reading) | MIC ([16]; 48 h, Aspergillus fumigatus 5280 (ATCC MYA-3626) no Tween, 48 hr reading) | MIC ([17]; ATCC22019, 72 h, Candida parapsilosis 2323 (ATCC22019) no Tween, 72 hr reading) | MIC ([27]; 48 hr reading)
0.5 µg/mL: MIC ([3]; 72 hr reading) | MIC ([16]; 72 h, Aspergillus fumigatus 5280 (ATCC MYA-3626), 72 hr reading) | MIC [25] | MIC ([29]; 48 hr reading) | MIC ([29]; 72 hr reading)
0.25 µg/mL: MIC ([3]; 48 hr reading) | MIC ([4]; 48 hr reading) | MIC ([4]; 72 hr reading) | MIC ([10]; 48 hr reading) | MIC ([16]; 48 h, Aspergillus fumigatus 5280 (ATCC MYA-3626), 48 hr reading) | MIC ([17]; ATCC22019, 48 h, Candida parapsilosis 2323 (ATCC22019) no Tween, 48 hr reading) | MIC ([20]; 48 hr reading) | MIC ([20]; 72 hr reading) | MIC ([33]; 72 hr reading)
0.3 µg/mL: MIC ([5]; 48 hr reading) | MIC ([11]; 48 hr reading) | MIC ([13]; 48 hr reading) | MIC ([18]; 48 hr reading)
